Here are results for one molecule from publication PMC7079008, “Compactness of Protein Folds Alters Disulfide‐Bond Reducibility by Three Orders of Magnitude: A Comprehensive Kinetic Case Study on the Reduction of Differently Sized Tryptophan Cage Model Proteins” (Chembiochem, 2019).

Each structure is given as a SMILES string.

A short description of the data set: TCEP stability in phosphate buffer by 31P NMR. It is filed as physicochemical. The settings on record: 50 mM phosphate buffer, room temperature, over 14 days. The procedure: Due to the acidic nature of TCEP, to avoid any pH shift, a phosphate buffer (50 mM, pH 7) was used to sustain near‐physiological pH. The groups of Han39 and Whitesides37 described the chemical instability of TCEP above pH 7 in 300–400 mM phosphate buffer.
NMR spectroscopy: All ^1H NMR spectroscopy experiments were performed on a Bruker Avance III 700 MHz spectrometer equipped with a z‐gradient 5 mm probe head operating at 700.13 MHz for ^1H, whereas ^31P NMR spectroscopy experiments were performed on a Bruker Avance 250 spectrometer with a 5 mm SB quad probe head.

On to `O=C(O)CCP(CCC(=O)O)CCC(=O)O` [TCEP, tris(2‐carboxyethyl)phosphine], for which the “TCEP oxidation or degradation” value is reported as “no significant spectral changes”.
